Reference: the NIST ThermoML archive (doi:10.1016/j.jct.2017.01.016)

What was measured:
[1] = 101 kPa, Liquid; for viscosity: Capillary tube (Ostwald / Ubbelohde) method; for speed of sound: Frequency=3 MHz, Linear variable-path acoustic interferometer
[2] = xn = mol fraction of the nth substance listed; conditions: 101 kPa, Liquid; for viscosity: Capillary tube (Ostwald / Ubbelohde) method; for speed of sound: Frequency=3 MHz, Linear variable-path acoustic interferometer

c1ccccc1 [benzene]
[1]
Conditions	speed of sound [m/s]	viscosity [mPa·s]
293.15 K	1324.4	0.647
298.15 K	1299.5	0.6048
303.15 K	1275.7	0.5672
308.15 K	1252.4	0.5322
313.15 K	1229.3	0.498
318.15 K	1207.8	0.4672

C1COCCO1 [1,4-dioxane] + Cc1cccc(C)c1
[2], x1 = 1
Conditions	speed of sound [m/s]	viscosity [mPa·s]
293.15 K	1367.2	1.306
298.15 K	1344.7	1.195
303.15 K	1323.1	1.096
308.15 K	1301.2	1.014
313.15 K	1279.7	0.945
318.15 K	1258.6	0.884

Cc1ccccc1 [toluene] + C1COCCO1
[2], x2 = 0
Conditions	speed of sound [m/s]	viscosity [mPa·s]
293.15 K	1328.6	0.5885
298.15 K	1307.3	0.5541
303.15 K	1285.5	0.5232
308.15 K	1264.2	0.495
313.15 K	1242.4	0.4662
318.15 K	1220.7	0.4384

C1COCCO1 [1,4-dioxane] + Cc1ccccc1C
[2], x1 = 1
Conditions	speed of sound [m/s]	viscosity [mPa·s]
293.15 K	1367.2	1.306
298.15 K	1344.7	1.195
303.15 K	1323.1	1.096
308.15 K	1301.2	1.014
313.15 K	1279.7	0.945
318.15 K	1258.6	0.884

Cc1cccc(C)c1 [1,3-dimethylbenzene]
[1]
Conditions	speed of sound [m/s]	viscosity [mPa·s]
293.15 K	1346.7	0.6184
298.15 K	1323.6	0.584
303.15 K	1302.4	0.5517
308.15 K	1282.3	0.5229
313.15 K	1262.3	0.4938
318.15 K	1243	0.468

Cc1ccccc1C [1,2-dimethylbenzene]
[1]
Conditions	speed of sound [m/s]	viscosity [mPa·s]
293.15 K	1367.7	0.8066
298.15 K	1347.5	0.7576
303.15 K	1329.4	0.7132
308.15 K	1313.3	0.669
313.15 K	1298.5	0.6315
318.15 K	1285.2	0.5972

C1COCCO1 [1,4-dioxane]
[1]
Conditions	speed of sound [m/s]	viscosity [mPa·s]
293.15 K	1367.2	1.306
298.15 K	1344.7	1.195
303.15 K	1323.1	1.096
308.15 K	1301.2	1.014
313.15 K	1279.7	0.945
318.15 K	1258.6	0.884

Cc1ccc(C)cc1 [1,4-dimethylbenzene]
[1]
Conditions	speed of sound [m/s]	viscosity [mPa·s]
293.15 K	1328.4	0.6505
298.15 K	1307.4	0.6115
303.15 K	1287.3	0.5766
308.15 K	1267.6	0.544
313.15 K	1248.3	0.5132
318.15 K	1229.8	0.4862

C1COCCO1 [1,4-dioxane] + Cc1cc(C)cc(C)c1
[2], x1 = 1
Conditions	speed of sound [m/s]	viscosity [mPa·s]
293.15 K	1367.2	1.306
298.15 K	1344.7	1.195
303.15 K	1323.1	1.096
308.15 K	1301.2	1.014
313.15 K	1279.7	0.945
318.15 K	1258.6	0.884

C1COCCO1 [1,4-dioxane] + Cc1ccc(C)cc1
[2], x1 = 1
Conditions	speed of sound [m/s]	viscosity [mPa·s]
293.15 K	1367.2	1.306
298.15 K	1344.7	1.195
303.15 K	1323.1	1.096
308.15 K	1301.2	1.014
313.15 K	1279.7	0.945
318.15 K	1258.6	0.884

Cc1ccccc1 [toluene]
[1]
Conditions	speed of sound [m/s]	viscosity [mPa·s]
293.15 K	1328.6	0.5885
298.15 K	1307.3	0.5541
303.15 K	1285.5	0.5232
308.15 K	1264.2	0.495
313.15 K	1242.4	0.4662
318.15 K	1220.7	0.4384

Cc1cc(C)cc(C)c1 [1,3,5-trimethylbenzene]
[1]
Conditions	speed of sound [m/s]	viscosity [mPa·s]
293.15 K	1360.4	0.7056
298.15 K	1339.8	0.6592
303.15 K	1319.6	0.6188
308.15 K	1300.2	0.5792
313.15 K	1280.4	0.5422
318.15 K	1263	0.5066

c1ccccc1 [benzene] + C1COCCO1
[2], x2 = 0
Conditions	speed of sound [m/s]	viscosity [mPa·s]
293.15 K	1324.4	0.647
298.15 K	1299.5	0.6048
303.15 K	1275.7	0.5672
308.15 K	1252.4	0.5322
313.15 K	1229.3	0.498
318.15 K	1207.8	0.4672
